Measured values taken from PubChem BioAssay (NCI).
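Compound exposure: 48 hours, 5 concentrations, 96-well plates. TGI marks complete inhibition of growth.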

Assays:
Test in all cases: DTP human tumour cell line panel, 48 h
[1] = system: 786-0 renal
[2] = system: A498 renal
[3] = system: A549 NSCLC
[4] = system: ACHN renal
[5] = system: BT-549 breast
[6] = system: CAKI-1 renal
[7] = system: CCRF-CEM leukemia
[8] = system: COLO 205 colon
[9] = system: DU-145 prostate
[10] = system: EKVX NSCLC
[11] = system: HCC-2998 colon
[12] = system: HCT-116 colon
[13] = system: HCT-15 colon
[14] = system: HL-60(TB) leukemia
[15] = system: HOP-62 NSCLC
[16] = system: HOP-92 NSCLC
[17] = system: HS 578T breast
[18] = system: HT29 colon
[19] = system: IGROV1 ovarian
[20] = system: K-562 leukemia
[21] = system: KM12 colon
[22] = system: LOX IMVI melanoma
[23] = system: M14 melanoma
[24] = system: MALME-3M melanoma
[25] = system: MCF7 breast
[26] = system: MDA-MB-231 breast
[27] = system: MDA-MB-435
[28] = system: MDA-N
[29] = system: MOLT-4 leukemia
[30] = system: NCI-H226 lung
[31] = system: NCI-H23 lung
[32] = system: NCI-H460 lung
[33] = system: NCI-H522 lung
[34] = system: NCI/ADR-RES ovarian
[35] = system: OVCAR-3 ovarian
[36] = system: OVCAR-4 ovarian
[37] = system: OVCAR-5 ovarian
[38] = system: OVCAR-8 ovarian
[39] = system: PC-3 prostate
[40] = system: RPMI-8226 leukemia
[41] = system: RXF 393 renal
[42] = system: SF-268 CNS
[43] = system: SF-295 CNS
[44] = system: SF-539 CNS
[45] = system: SK-MEL-2 melanoma
[46] = system: SK-MEL-28 melanoma
[47] = system: SK-MEL-5 melanoma
[48] = system: SK-OV-3 ovarian
[49] = system: SN12C renal
[50] = system: SNB-19 CNS
[51] = system: SNB-75 CNS
[52] = system: SW-620 colon
[53] = system: TK-10 renal
[54] = system: U251 CNS
[55] = system: UACC-257 melanoma
[56] = system: UACC-62 melanoma
[57] = system: UO-31 renal
[58] = system: T-47D breast

With `CC(C)Oc1c(-c2ccc(F)cc2)c(O)c2c3c1oc(=O)n3C=CC2C` (stereo not given) the TGI [1] was 27.8 µM, the TGI [2] was 28.2 µM and the TGI [3] was 28 µM. It also gave a TGI [4] of 27.6 µM, a TGI [5] of 28 µM and a TGI [6] of 27.5 µM. For the same compound, the TGI [7] was 29.8 µM, the TGI [8] was 32.2 µM and the TGI [9] was 51.6 µM. It also gave a TGI [10] of 30.6 µM, a TGI [11] of 26.2 µM and a TGI [12] of 25.5 µM. For the same compound, the TGI [13] was 29.7 µM, the TGI [14] was 31 µM and the TGI [15] was 28.6 µM. The TGI [16] was 28 µM, the TGI [17] was 52.8 µM and the TGI [18] was 30.2 µM. It also gave a TGI [19] of 29.2 µM, a TGI [20] of 39.6 µM and a TGI [21] of 34.3 µM. The TGI [22] was 28.2 µM, the TGI [23] was 28.5 µM and the TGI [24] was 91.1 µM. It also gave a TGI [25] of 24.3 µM, a TGI [26] of 28.7 µM and a TGI [27] of 52.9 µM. The TGI [28] was 27.1 µM, the TGI [29] was 39.2 µM and the TGI [30] was 26.9 µM. The TGI [31] was 24.6 µM, the TGI [32] was 29.1 µM and the TGI [33] was 27.2 µM. It also gave a TGI [34] of 29.3 µM, a TGI [35] of 27.9 µM and a TGI [36] of 23.3 µM. For the same compound, the TGI [37] was 62.2 µM, the TGI [38] was 30.6 µM and the TGI [39] was 31.7 µM. The TGI [40] was 34.7 µM, the TGI [41] was 27.3 µM and the TGI [42] was 35.2 µM. It also gave a TGI [43] of 34.6 µM, a TGI [44] of 26.4 µM and a TGI [45] of 53.3 µM. For the same compound, the TGI [46] was 30.9 µM, the TGI [47] was 22.9 µM and the TGI [48] was greater than 100 µM. It also gave a TGI [49] of 23.8 µM, a TGI [50] of 31.9 µM and a TGI [51] of 31.3 µM. It also gave a TGI [52] of 28.5 µM, a TGI [53] of 30.7 µM and a TGI [54] of 30.3 µM. It also gave a TGI [55] of 26.3 µM, a TGI [56] of 29.4 µM and a TGI [57] of 25.5 µM.

Work on `CC1(C)N=C(C2CCCN2C(=O)OCc2ccccc2)OC1=O` (stereo not given) yielded a TGI [1] greater than 100 µM, a TGI [2] greater than 100 µM and a TGI [3] greater than 100 µM. The TGI [4] was greater than 100 µM, the TGI [5] was greater than 100 µM and the TGI [6] was greater than 100 µM. For the same compound, the TGI [7] was greater than 100 µM, the TGI [8] was greater than 100 µM and the TGI [9] was greater than 100 µM. For the same compound, the TGI [11] was greater than 100 µM, the TGI [12] was greater than 100 µM and the TGI [13] was greater than 100 µM. It also gave a TGI [14] greater than 100 µM, a TGI [15] greater than 100 µM and a TGI [17] greater than 100 µM. It also gave a TGI [18] greater than 100 µM, a TGI [19] greater than 100 µM and a TGI [20] greater than 100 µM. It also gave a TGI [21] greater than 100 µM, a TGI [22] greater than 100 µM and a TGI [23] greater than 100 µM. For the same compound, the TGI [24] was greater than 100 µM, the TGI [25] was greater than 100 µM and the TGI [26] was greater than 100 µM. For the same compound, the TGI [27] was greater than 100 µM, the TGI [28] was greater than 100 µM and the TGI [29] was greater than 100 µM. It also gave a TGI [30] greater than 100 µM, a TGI [31] greater than 100 µM and a TGI [32] greater than 100 µM. It also gave a TGI [33] greater than 100 µM, a TGI [34] greater than 100 µM and a TGI [35] greater than 100 µM. It also gave a TGI [37] greater than 100 µM, a TGI [38] greater than 100 µM and a TGI [39] greater than 100 µM. It also gave a TGI [40] greater than 100 µM, a TGI [41] of 85.1 µM and a TGI [42] greater than 100 µM. For the same compound, the TGI [43] was greater than 100 µM, the TGI [44] was greater than 100 µM and the TGI [45] was greater than 100 µM. For the same compound, the TGI [46] was greater than 100 µM, the TGI [47] was greater than 100 µM and the TGI [48] was greater than 100 µM. For the same compound, the TGI [49] was greater than 100 µM, the TGI [50] was greater than 100 µM and the TGI [51] was greater than 100 µM. It also gave a TGI [52] greater than 100 µM, a TGI [53] greater than 100 µM and a TGI [54] greater than 100 µM. The TGI [55] was greater than 100 µM, the TGI [56] was greater than 100 µM and the TGI [57] was greater than 100 µM.

In the case of `Cn1cc(-c2csc(-c3cn(C)c4ccccc34)n2)c2ccccc21`, the TGI [1] is reported as greater than 100 µM, the TGI [2] is reported as 48.1 µM and the TGI [3] is reported as greater than 100 µM. For the same compound, the TGI [4] was greater than 100 µM, the TGI [5] was greater than 100 µM and the TGI [6] was greater than 100 µM. The TGI [7] was greater than 100 µM, the TGI [8] was greater than 100 µM and the TGI [9] was greater than 100 µM. For the same compound, the TGI [12] was greater than 100 µM, the TGI [13] was greater than 100 µM and the TGI [14] was greater than 100 µM. It also gave a TGI [15] of 45.7 µM, a TGI [16] of 94.5 µM and a TGI [17] greater than 100 µM. It also gave a TGI [18] greater than 100 µM, a TGI [19] greater than 100 µM and a TGI [20] of 31.9 µM. The TGI [21] was greater than 100 µM, the TGI [22] was greater than 100 µM and the TGI [23] was greater than 100 µM. The TGI [24] was 70 µM, the TGI [25] was greater than 100 µM and the TGI [26] was 60.1 µM. For the same compound, the TGI [27] was greater than 100 µM, the TGI [28] was greater than 100 µM and the TGI [29] was 42 µM. For the same compound, the TGI [30] was greater than 100 µM, the TGI [31] was greater than 100 µM and the TGI [32] was greater than 100 µM. The TGI [33] was greater than 100 µM, the TGI [34] was greater than 100 µM and the TGI [35] was 64 µM. It also gave a TGI [36] greater than 100 µM, a TGI [37] greater than 100 µM and a TGI [38] greater than 100 µM. It also gave a TGI [39] of 89.8 µM, a TGI [40] of 85 µM and a TGI [41] of 54.4 µM. For the same compound, the TGI [42] was greater than 100 µM, the TGI [43] was greater than 100 µM and the TGI [45] was greater than 100 µM. The TGI [46] was greater than 100 µM, the TGI [47] was greater than 100 µM and the TGI [49] was greater than 100 µM. The TGI [50] was greater than 100 µM, the TGI [52] was greater than 100 µM and the TGI [58] was 89.6 µM. For the same compound, the TGI [53] was greater than 100 µM, the TGI [54] was greater than 100 µM and the TGI [55] was greater than 100 µM. It also gave a TGI [56] greater than 100 µM and a TGI [57] greater than 100 µM.

In the case of `CC[C@@]1(O)C(=O)OCc2c1cc1n(c2=O)Cc2c-1nc1ccccc1c2/C=N/NC(=O)c1ccc(N)cc1`, the TGI [1] is reported as 5.03 µM, the TGI [2] is reported as 6.18 µM and the TGI [3] is reported as greater than 100 µM. The TGI [5] was greater than 100 µM, the TGI [6] was 5.06 µM and the TGI [8] was greater than 100 µM. It also gave a TGI [9] of 16.8 µM, a TGI [10] greater than 100 µM and a TGI [11] greater than 69.9 µM. It also gave a TGI [12] of 12 µM, a TGI [13] greater than 100 µM and a TGI [15] of 1.61 µM. For the same compound, the TGI [17] was greater than 100 µM, the TGI [18] was greater than 100 µM and the TGI [20] was greater than 31.6 µM. For the same compound, the TGI [21] was greater than 75.9 µM, the TGI [22] was 0.5 µM and the TGI [23] was 1.23 µM. It also gave a TGI [24] greater than 87.8 µM, a TGI [25] greater than 100 µM and a TGI [26] greater than 100 µM. It also gave a TGI [27] greater than 100 µM, a TGI [28] greater than 37.6 µM and a TGI [29] of 0.287 µM. For the same compound, the TGI [30] was 0.528 µM, the TGI [31] was 1.48 µM and the TGI [32] was 15.2 µM. For the same compound, the TGI [34] was greater than 37.8 µM, the TGI [35] was greater than 100 µM and the TGI [36] was greater than 100 µM. For the same compound, the TGI [37] was greater than 100 µM, the TGI [38] was greater than 100 µM and the TGI [39] was greater than 100 µM. For the same compound, the TGI [40] was greater than 100 µM, the TGI [41] was 0.22 µM and the TGI [42] was greater than 100 µM. For the same compound, the TGI [43] was 14.7 µM, the TGI [44] was 0.019 µM and the TGI [45] was greater than 100 µM. For the same compound, the TGI [46] was greater than 100 µM, the TGI [47] was 1.1 µM and the TGI [48] was greater than 100 µM. It also gave a TGI [49] of 16.2 µM, a TGI [50] greater than 100 µM and a TGI [52] greater than 100 µM. The TGI [58] was 0.389 µM, the TGI [53] was greater than 100 µM and the TGI [54] was 7.63 µM. For the same compound, the TGI [55] was greater than 100 µM, the TGI [56] was 1.94 µM and the TGI [57] was 25.6 µM.
